From PMC11984407, “A natural small molecule isoginkgetin alleviates hypercholesterolemia and atherosclerosis by targeting ACLY” (Theranostics, 2025)

How the values were obtained:
[1] = target: T1, ACLY (Mus musculus, UniProt Q91V92); assay: ACLY activity in vivo, mouse liver extracts (MDH-coupled method); design: from tissue; host or cells: liver of Apoe-/- mice dosed with ISOGK; conditions: male and female Apoe-/- mice, 20 mg/kg/day, 8 weeks
T1 sequence (Q91V92 1-1091): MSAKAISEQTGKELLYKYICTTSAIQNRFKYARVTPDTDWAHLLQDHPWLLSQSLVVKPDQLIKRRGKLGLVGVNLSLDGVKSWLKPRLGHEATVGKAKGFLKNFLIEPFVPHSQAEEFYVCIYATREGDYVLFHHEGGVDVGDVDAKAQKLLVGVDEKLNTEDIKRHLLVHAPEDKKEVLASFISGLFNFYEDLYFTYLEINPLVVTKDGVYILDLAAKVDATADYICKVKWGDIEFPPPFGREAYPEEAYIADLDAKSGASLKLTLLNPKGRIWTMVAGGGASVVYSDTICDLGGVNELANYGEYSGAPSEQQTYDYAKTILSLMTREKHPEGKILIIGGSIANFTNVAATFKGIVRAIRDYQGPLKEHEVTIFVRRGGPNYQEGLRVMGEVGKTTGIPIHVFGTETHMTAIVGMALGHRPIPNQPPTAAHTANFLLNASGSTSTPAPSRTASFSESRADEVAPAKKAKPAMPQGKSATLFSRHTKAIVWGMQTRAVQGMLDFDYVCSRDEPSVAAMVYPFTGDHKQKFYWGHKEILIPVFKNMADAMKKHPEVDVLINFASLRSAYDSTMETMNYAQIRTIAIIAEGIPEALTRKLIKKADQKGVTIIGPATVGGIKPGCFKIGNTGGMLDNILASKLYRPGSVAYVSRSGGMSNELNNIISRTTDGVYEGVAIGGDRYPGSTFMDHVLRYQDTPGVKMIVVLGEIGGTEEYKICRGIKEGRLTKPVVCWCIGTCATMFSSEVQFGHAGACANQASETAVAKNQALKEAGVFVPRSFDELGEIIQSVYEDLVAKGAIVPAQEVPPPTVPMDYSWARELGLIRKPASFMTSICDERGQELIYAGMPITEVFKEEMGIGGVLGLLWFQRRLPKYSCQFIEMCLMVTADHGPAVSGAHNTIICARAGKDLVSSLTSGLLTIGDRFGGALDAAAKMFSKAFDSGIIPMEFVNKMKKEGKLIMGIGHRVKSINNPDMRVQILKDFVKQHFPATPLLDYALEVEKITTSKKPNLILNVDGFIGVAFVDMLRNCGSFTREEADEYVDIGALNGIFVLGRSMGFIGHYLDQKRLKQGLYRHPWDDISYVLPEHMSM
Method: The activity of the ACLY enzyme was assayed utilizing malate dehydrogenase (MDH)-coupled method kits (BC4240, Solarbio, Beijing, China). In summary, liver extracts were incubated in a reaction buffer comprising 20 mM citrate, 10 mM MgCl₂, 10 mM DTT, 0.5 U/ml of malic dehydrogenase, 0.33 mM CoASH, and 0.14 mM NADH, both in the presence and absence of 5 mM ATP. The quantity of oxaloacetate produced by ACLY catalysis was determined by measuring the alteration in absorbance at 340 nm, which corresponds to the depletion of NADH during the MDH-catalyzed reaction. After accounting for background variations in absorbance in the absence of ATP, the relative ACL activities were computed by normalizing the data to the weight of the liver tissue.

[2] = system: HepG2 cell line; assay: CCK8 cell viability, HepG2; assay type: cell-based; conditions: concentrations below 7.5 μmol/L, 12 h
Method: The cellular viability was assessed by conducting CCK8 assays in primary hepatocytes from C57BL/6J mouse and HepG2 cell line. Specifically, 2,000 cells per well were plated in 96-well plates and cultured with different concentrations of ISOGK for 12 h. Following this, cell absorption was quantified using a CCK8 kit (CA1210, Solarbio, Beijing, China), adhering strictly to the manufacturer's guidelines. The presented data represents the findings from three independent experiments, with each experiment consisting of four replicates.

[3] = Pharmacokinetics study in ICR mice; assay type: in vivo, mouse
Method: Pharmacokinetic properties were investigated using ICR mice weighing between 18 and 22 grams. Six mice were assigned into two groups, with three in each group. ISOGK was administered via intragastric and tail vein injections. For both the intravenous and intragastric administration groups, cheek blood samples of approximately 0.05 mL were collected at 5 min, 15 min, 30 min, 1 h, 2 h, 4 h, 6 h, 8 h, and 24 h post-administration. The plasma concentration of compound in the mice was measured using the LC-MS/MS technique. Pharmacokinetic parameters were then analyzed using WinNonlin software.

[4] = system: primary mouse hepatocytes; assay: De novo lipogenesis in vitro, [1,2-14C]-acetate incorporation; assay type: cell-based; conditions: 2.5 μmol/L and 5 μmol/L, 4 h
Method: Hepatocytes were seeded in 6-well plates at a density of 6 x 10^5 cells per well. They were exposed to various compounds along with [1,2-^14C]-acetate (0.1 μCi per well) for specified durations. Following treatment, the cells underwent washing with cold PBS and were lysed in 0.4 to 0.6 mL of 0.5 M KOH. The saponification process at 95 °C for 3 h with 0.4 mL of KOH (in 20% methanol solution) enabled the separation of cholesterol and fatty acids. Cholesterol, being nonpolar, was extracted using 0.5 mL of petroleum ether in three separate instances. In comparison, polar fatty acids were extracted with 0.5 mL of petroleum ether after adding 0.2 mL of H2O and 0.4 mL of 5 M H2SO4 in three rounds. The petroleum ether extracts were left to air dry at room temperature overnight. The radioactivity of the resultant products was quantified using a liquid scintillation counter.

[5] = target: T1, ACLY; assay: Cellular thermal shift assay in AML12 cell lysates; assay type: binding; design: The AML12 cell lysates were separated into two portions; endogenous in cells; host or cells: AML12; conditions: 5 µM, 50 to 90 °C
Method: The AML12 cell lysates were separated into two portions; one served as a control, while the other was exposed to 5 µM ISOGK for 1 h at room temperature. Subsequently, the lysates were individually heated at the specified temperatures (50 to 90 °C) for 5 min and allowed to cool at room temperature. Following this, the lysates underwent centrifugation at 12,000 rpm for 10 min at 4 °C, after which the supernatants were analyzed through Western blot.

## COc1ccc(-c2cc(=O)c3c(O)cc(O)c(-c4cc(-c5cc(=O)c6c(O)cc(O)cc6o5)ccc4OC)c3o2)cc1 [ISOGK, Isoginkgetin]
[1]
  ACLY enzyme activity in liver tissue: significantly inhibits ACLY activity
[2]
  cytotoxicity (CCK-8): no significant cytotoxicity
[3]; intravenous 5 mg/kg
  peak plasma concentration: 710 ng/mL
[3]; mouse, plasma, intravenous 5 mg/kg, read-out: time of peak plasma concentration (converted)
  Tmax: 5 min
[3]; oral 20 mg/kg
  plasma levels after oral administration: almost undetectable
[3]; oral 20 mg/kg vs intravenous 5 mg/kg
  oral bioavailability: low oral bioavailability
[4]
  incorporation of [1,2-14C]-acetate into fatty acids and cholesterol: inhibition of lipogenesis
[5]
  thermal stabilization of ACLY: stabilized the ACLY protein
